Data on one compound can be found in patent publication US10959966B2, “Compositions and methods for modulating HEXM1 expression” (CASE WESTERN RESERVE UNIVERSITY, priority 2014, dated 2021).

The structures appear in SMILES notation.

Common to all, as to assay type: cell-based
The subject of one assay is MCF7 cells. The assay can be described thus: Nile red staining of lipid droplets (differentiation marker), MCF7 cells. Conditions: 72 hours. How it is done:
(§1) FIGS. 8(A-B) illustrate images showing (A) MCF7 cells transfected with control or HEXIM1 siRNA or (B) MDA-MB-231 transfected with control or HEXIM1 expression vector treated with vehicle (DMSO), HMBA, or 4a1 for 72 hours. Lower panels show Western blot analyses of HEXIM1 expression in MDA-MB-231 cells transfected with control or expression vector for Flag-tagged HEXIM1.
(§2) Cells were stained with Nile red for lipid droplets (marker of cell differentiation). Briefly, the stock solution of Nile red 1 mg/ml in acetone was diluted in PBS (1:1000). The fixed cells (4% paraformaldehyde) were incubated with diluted Nile red for 5 minutes at room temperature, rinsed with PBS and observed for the presence of lipid droplets by confocal microscopy. Images were digitally captured using a Leica microscope (Leica Microsystems Inc, IL, USA).

Assay [1] deals with triple negative MDA-MB-231 breast cancer cells. Briefly: Nile red staining of lipid droplets (differentiation marker), MDA-MB-231 cells. The conditions noted are these: 72 hours. The protocol: as §1, §2
For assay [2], the system named is p21 expression in breast cancer MCF7 cells. The assay can be described thus: p21 expression by western blot, MCF7 cells. Conditions: 5 mM HMBA or 50 μM 4a1, 18 hours. The protocol: (§3) FIGS. 7(A-B) illustrate Western blots showing (A) MCF7 (control siRNA or HEXIM1 siRNA) and (B) LNCaP (control shRNA or HEXIM1 shRNA) cells treated with vehicle (DMSO), 5 mM HMBA, or 50 μM 4a1 for 18 hours.
(§4) Cell lysates were analyzed by western blot as previously described. Anti-HEXIM1 was generated in the Montano laboratory. Primary antibodies against p21 (C-19; cat# sc-397), cyclin D1 (HD11; cat# sc-246) and myc (9E10; cat# sc-40) were obtained from Santa Cruz Biotechnology. Anti-GAPDH was obtained from Millipore. Anti-HIF-1α was obtained from Oxy-cell, Bioresearch).
(§5) HMBA was investigated in a Phase II clinical trial due to its potent anti-cancer and cell differentiation activities. Moreover, the roles of HMBA, and potentially 4a1, as differentiating factors are advantageous for their therapeutic use when compared to cytotoxic agents. […] We also examined the ability of 4a1 to induce differentiation and the relative role of HEXIM1.
In general terms: Immunoblotting shows a protein as a band on a membrane.

Assay [3] has as its system recruitment of CDK9 to HEXIM1 gene in MCF7 cells. The assay can be described thus: ChIP assay, CDK9 recruitment to HEXIM1 gene, MCF7 cells. Conditions: 5 mM HMBA or 50 μM 4a1, 90 minutes. The protocol: (§6) FIGS. 6(A-B) illustrate graphs showing HEXIM1 graphs showing HMBA and 4a1 induced recruitment of CDK9 to HEXIM1 promoter in MCF7 and LNCaP cells treated with 5 mM HMBA or 50 μM 4a1 for 90 minutes.
(§7) ChIP assays were carried out as previously described. Anti-CDK9 antibody (D-7; cat# sc-13130) was obtained from Santa Cruz Biotechnology.
(§8) The induction of HEXIM1 by HMBA appears to involve the release of free P-TEFb from 7SK snRNP, and recruitment of P-TEFb to HEXIM1 gene. P-TEFb is a heterodimer between the cyclin-dependent kinase 9 (Cdk9) and its regulatory subunit Cyclin T1 (CycT1). We thus determined the regulation of the recruitment of CDK9 to the HEXIM1 coding sequence by HMBA and 4a1.

Assay [4] has as its system HEXIM1 targets in MCF7 cells. Briefly: Western blot of HEXIM1 targets in MCF7 cells. The conditions noted are these: 5 mM HMBA or 50 uM 4a1, 18 h, relative to GAPDH. How it is done: FIG. 10 illustrates a Western blot of MCF7 cells treated with vehicle, 5 mM HMBA, or 50 uM 4a1 for 18 h, and processes for analyses of HEXIM1 targets relative to GAPDH.
as §4
To assess the clinical potential of HMBA and 4a1 we need to determine to what extent the targets of HMBA and 4a1 overlap with that of HEXIM1. We focused on direct targets of HEXIM1 that we have identified.

Assay [5] has as its system HEXIM1 expression in breast cancer MCF7 cells. Briefly: HEXIM1 protein expression in MCF7 cells. Conditions: 18 h. The protocol: (§9) FIGS. 5(A-C) illustrate (A) the structure of HMBA analog, 4a1, (B) a graph showing HEXIM1 protein expression of breast cancer MCF7 cells treated with vehicle, HMBA, or 4a1 for 18 h, and (C) Western blot analyses of HEXIM1 targets relative to the loading control (GAPDH) of the treated cells.
(§10) MCF7, MDA-MB-231, and LNCaP cells were obtained from the American Tissue Culture Collection, and were maintained as previously described. Construction of expression vectors for control miRNA or HEXIM1 miRNAs were described previously. MCF7 or LNCaP cells were transfected with expression vectors containing either the HEXIM1 miRNA insert or a control miRNA insert as previously described. Following blasticidin selection, cells expressing the highest level of GFP were flow-sorted and expanded. MDA-MB-231 cells were transfected with control or expression vector for Flag-tagged HEXIM1 as previously described. The tamoxifen resistant cells line (TOTR) was generated by serial passage of parental MCF7 cells in growth media supplemented with 1 uM trans-hydroxytamoxifen.
(§11) Cell lysates were analyzed by western blot as previously described. Anti-HEXIM1 was generated in the Montano laboratory. Primary antibodies against p21 (C-19; cat# sc-397), cyclin D1 (HD11; cat# sc-246) and myc (9E10; cat# sc-40) were obtained from Santa Cruz Biotechnology. Anti-GAPDH was obtained from Millipore. […]

Assay [6] relates to recruitment of CDK9 to HEXIM1 gene in LNCaP cells. The assay can be described thus: ChIP assay, CDK9 recruitment to HEXIM1 gene, LNCaP cells. The conditions noted are these: 5 mM HMBA or 50 μM 4a1, 90 minutes. How it is done: as §6, §7, §8
The subject of assay [7] is HEXIM1 expression in breast cancer MDA-MB-231 cells. The assay can be described thus: HEXIM1 expression in MDA-MB-231 cells. How it is done: as §9, §10, §11
Assay [8] relates to HEXIM1 expression in MCF7/TOTR cells. Briefly: HEXIM1 expression in tamoxifen resistant MCF7/TOTR cells. The conditions noted are these: 5 mM HMBA or 50 μM 4a1. The protocol:
(§12) FIGS. 9(A-B) illustrate a Western blot and plots showing HEXIM1 expression in MCF7 and MCF7(TOTR) cells in the presence of vehicle (DMSO), 5 mM HMBA or 50 μM 4a1.
as §10, with “The tamoxifen resistant cells line (TOTR) was generated by serial passage of parental MCF7 cells in growth media supplemented with 1 uM trans-hydroxytamoxifen.” left out
Cell lysates were analyzed by western blot as previously described. […]
(§13) We have reported that HEXIM1 is required for the ability of antiestrogens to inhibit the activity of the Estrogen Receptor, that loss of HEXIM1 results in agonistic activity of tamoxifen, and that recurrence after tamoxifen therapy can be correlated with loss of HEXIM1 expression in human breast tissue samples. Thus we determined if HMBA and 4a1 can enhance sensitivity to tamoxifen of a tamoxifen resistant breast cancer line (MCF7/TOTR). […]

For assay [9], the system named is tamoxifen resistant breast cancer line (MCF7/TOTR). The assay can be described thus: MTT proliferation assay, sensitivity to trans-hydroxytamoxifen. Conditions: 7 days, 5 mM HMBA or 50 μM 4a1. How it is done: as §12
MCF7, MDA-MB-231, and LNCaP cells were obtained from the American Tissue Culture Collection, and were maintained as previously described. Construction of expression vectors for control miRNA or HEXIM1 miRNAs were described previously. MCF7 or LNCaP cells were transfected with expression vectors containing either the HEXIM1 miRNA insert or a control miRNA insert as previously described. Following blasticidin selection, cells expressing the highest level of GFP were flow-sorted and expanded. […]
MCF7 cells were plated onto 96 well plates and treated with 17β-estradiol±trans-hydroxytamoxifen in the presence of DMSO (vehicle), HMBA or 4a1 for 7 days. Cell proliferation was assessed using the MTT based Cell Growth Determination Kit from Sigma-Aldrich according to the manufacturer's protocol.
as §13
Background: Tetrazolium dyes change colour on reduction, which living cells bring about.

Assay [10] concerns p21 expression in prostate cancer LNCaP cells. Briefly: p21 expression by western blot, LNCaP cells. Conditions: 5 mM HMBA or 50 μM 4a1, 18 hours. The protocol:
as §3, §4, §5

In the case of `COc1ccc(CC(=O)NCCCCCCNC(C)=O)cc1` [Compound 4a1], the “Cell differentiation (lipid droplets, Nile red)” value (in the assay on MCF7 cells; in assay [1]) was “induced differentiation” in each case. Also, the p21 expression result is given as “induced p21 expression” in [2] and “induction of p21 expression” in assay [10]. The “Recruitment of CDK9 to HEXIM1 gene” value in assay [3] and in assay [6] was “induce recruitment of CDK9” throughout. In addition, in assay [4], the “Expression of proteins directly regulated by HEXIM1” value is “regulated expression of proteins”. The “Potency of HEXIM1 induction compared to HMBA” value in assay [5] and in assay [7] was “increased potency” each time. The HEXIM1 expression result in [8] is given as “induced HEXIM1 expression”. Also, the “Sensitivity of TOTR cells to trans-hydroxytamoxifen” value in assay [9] is “enhanced the sensitivity”.
